Experimental data as given in US9302999B2, “Substituted triazoles as herbicides” (E. I. DU PONT DE NEMOURS AND COMPANY, priority 2012, dated 2016).

Experiments:
Type in all cases: in vivo
[1] = system: surinam grass (Brachiaria decumbens); assay: Test C pre-/postemergence: surinam grass
Outline: (§1)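 Preemergence on seeds in loam/sand, postemergence on 2–18 cm (1–4-leaf) plants in peat-based medium; compounds in non-phytotoxic solvent with surfactant. After 13–15 days in greenhouse, visual rating versus controls, 0 (no effect) to 100 (complete control).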

[2] = system: canarygrass (Phalaris minor); assay: Test C postemergence: canarygrass
Outline: (§2)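 Greenhouse pot test; foliar postemergence treatment at 1- to 4-leaf stage. Rated visually at 13 to 15 days on a 0–100 control scale relative to untreated plants.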

[3] = system: cocklebur (common cocklebur, Xanthium strumarium); assay: Test C pre-/postemergence: cocklebur
Outline: as §1

[4] = system: foxtail, green (green foxtail, Setaria viridis); assay: Test C pre-/postemergence: foxtail, green
Outline: as §1

[5] = system: windgrass (Apera spica-venti); assay: Test C postemergence: windgrass
Outline: as §2

[6] = system: goosegrass (Eleusine indica); assay: Test C pre-/postemergence: goosegrass
Outline: as §1

[7] = system: bermudagrass (Cynodon dactylon); assay: Test C pre-/postemergence: bermudagrass
Outline: as §1

[8] = system: barley (winter barley, Hordeum vulgare); assay: Test C postemergence: barley
Outline: as §2

[9] = system: common (oilseed) sunflower (Helianthus annuus); assay: Test C pre-/postemergence: sunflower; settings: Preemergence
Outline: as §1

[10] = system: woolly cupgrass (Eriochloa villosa); assay: Test C pre-/postemergence: woolly cupgrass
Outline: as §1

[11] = Postemergence, 31 g ai/ha, scale 0 to 100 (0 no effect, 100 complete control)
[12] = Postemergence, 62 g ai/ha, scale 0 to 100 (0 no effect, 100 complete control)
[13] = Postemergence, 125 g ai/ha, scale 0 to 100, 0 no effect, 100 complete control
[14] = Postemergence, 250 g ai/ha, scale 0 to 100
[15] = Preemergence, 31 g ai/ha, scale of 0 to 100, 0 is no effect, 100 is complete control
[16] = Preemergence, 62 g ai/ha, scale of 0 to 100, 0 is no effect, 100 is complete control
[17] = Preemergence, 125 g ai/ha, scale 0 to 100, 0 no effect, 100 complete control
[18] = Preemergence, 250 g ai/ha, scale 0 to 100, 0 no effect, 100 complete control
[19] = 31 g ai/ha, scale 0 to 100 (0 no effect, 100 complete control)
[20] = 62 g ai/ha, scale 0 to 100 (0 no effect, 100 complete control)
[21] = 125 g ai/ha, scale 0 to 100, 0 no effect, 100 complete control
[22] = Preemergence, 62 g ai/ha, scale 0 to 100, 0 no effect, 100 complete control

In the case of `FC(F)Oc1nn(-c2ccc(C(F)(F)F)cc2)nc1Cc1ccnc(C(F)(F)F)c1` [Compound 26], the “Plant response rating, Surinam Grass” value [1, 11] is reported as 15, the “Plant response rating, Surinam Grass” value [1, 12] is reported as 20 and the “Plant response rating, Surinam Grass” value [1, 13] is reported as 25. The “Plant response rating, Surinam Grass” value [1, 14] was 45, the “Plant response rating, Surinam Grass” value [1, 15] was 10 and the “Plant response rating, Surinam Grass” value [1, 16] was 50. The “Plant response rating, Surinam Grass” value [1, 17] was 65, the “Plant response rating, Surinam Grass” value [1, 18] was 90 and the “Plant response rating, Canarygrass” value [2, 19] was 40. The “Plant response rating, Canarygrass” value [2, 20] was 45, the “Plant response rating, Canarygrass” value [2, 21] was 90 and the “Plant response rating, Canarygrass” value ([2]; 250 g ai/ha, scale 0 to 100) was 90. For the same compound, the “Plant response rating, Cocklebur” value [3, 11] was 10, the “Plant response rating, Cocklebur” value [3, 12] was 15 and the “Plant response rating, Cocklebur” value [3, 13] was 55. For the same compound, the “Plant response rating, Cocklebur” value [3, 14] was 65, the “Plant response rating, Cocklebur” value [3, 15] was 0 and the “Plant response rating, Cocklebur” value [3, 22] was 5. For the same compound, the “Plant response rating, Cocklebur” value [3, 17] was 15, the “Plant response rating, Cocklebur” value [3, 18] was 55 and the “Plant response rating, Foxtail, Green” value [4, 11] was 30. The “Plant response rating, Foxtail, Green” value [4, 12] was 40, the “Plant response rating, Foxtail, Green” value [4, 13] was 70 and the “Plant response rating, Foxtail, Green” value [4, 14] was 85. The “Plant response rating, Foxtail, Green” value [4, 15] was 85, the “Plant response rating, Foxtail, Green” value [4, 16] was 95 and the “Plant response rating, Foxtail, Green” value [4, 17] was 95. For the same compound, the “Plant response rating, Foxtail, Green” value [4, 18] was 95, the “Plant response rating, Windgrass” value [5, 19] was 40 and the “Plant response rating, Windgrass” value [5, 20] was 55. For the same compound, the “Plant response rating, Windgrass” value [5, 21] was 80, the “Plant response rating, Windgrass” value ([5]; 250 g ai/ha, scale 0 to 100) was 80 and the “Plant response rating, Goosegrass” value [6, 11] was 25. For the same compound, the “Plant response rating, Goosegrass” value [6, 12] was 30, the “Plant response rating, Goosegrass” value [6, 13] was 40 and the “Plant response rating, Goosegrass” value [6, 14] was 70. For the same compound, the “Plant response rating, Goosegrass” value [6, 15] was 95, the “Plant response rating, Goosegrass” value [6, 16] was 100 and the “Plant response rating, Goosegrass” value [6, 17] was 100. For the same compound, the “Plant response rating, Goosegrass” value [6, 18] was 100, the “Plant response rating, Bermudagrass” value [7, 11] was 20 and the “Plant response rating, Bermudagrass” value [7, 12] was 20. The “Plant response rating, Bermudagrass” value [7, 13] was 30, the “Plant response rating, Bermudagrass” value [7, 14] was 30 and the “Plant response rating, Bermudagrass” value [7, 15] was 75. The “Plant response rating, Bermudagrass” value [7, 22] was 100, the “Plant response rating, Bermudagrass” value [7, 17] was 100 and the “Plant response rating, Bermudagrass” value [7, 18] was 100. The “Plant response rating, Barley” value [8, 19] was 20, the “Plant response rating, Barley” value [8, 20] was 30 and the “Plant response rating, Barley” value [8, 21] was 30. The “Plant response rating, Barley” value ([8]; 250 g ai/ha, scale 0 to 100) was 40, the “Plant response rating, Sunflower” value ([9]; 31 g ai/ha, scale of 0 to 100, 0 is no effect, 100 is complete control) was 0 and the “Plant response rating, Sunflower” value [9, 21] was 10. For the same compound, the “Plant response rating, Sunflower” value ([9]; 250 g ai/ha, scale 0 to 100, 0 no effect, 100 complete control) was 15, the “Plant response rating, Cupgrass, Woolly” value [10, 11] was 25 and the “Plant response rating, Cupgrass, Woolly” value [10, 12] was 40. The “Plant response rating, Cupgrass, Woolly” value [10, 13] was 45, the “Plant response rating, Cupgrass, Woolly” value [10, 14] was 55 and the “Plant response rating, Cupgrass, Woolly” value [10, 15] was 10. The “Plant response rating, Cupgrass, Woolly” value [10, 16] was 65, the “Plant response rating, Cupgrass, Woolly” value [10, 17] was 70 and the “Plant response rating, Cupgrass, Woolly” value [10, 18] was 90.
